IC50 data for 21 compounds are collected here from patent US20230143612A1 (Arbutus Biopharma Corporation, priority 2020, published 2023).

Each structure is given as a SMILES string.

PD-L1 His protein / PD-1 Fc protein, sequence (Q9NZQ7 19-238 limits assumed): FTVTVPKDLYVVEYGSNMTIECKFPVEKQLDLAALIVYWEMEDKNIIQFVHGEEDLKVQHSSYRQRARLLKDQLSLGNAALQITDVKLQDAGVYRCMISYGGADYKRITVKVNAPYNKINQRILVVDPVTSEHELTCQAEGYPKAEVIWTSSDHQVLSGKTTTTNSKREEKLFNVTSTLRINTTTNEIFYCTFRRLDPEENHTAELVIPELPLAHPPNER

This test addresses PD-L1 His protein / PD-1 Fc protein (Homo sapiens, UniProt Q9NZQ7). Put plainly: HTRF Assay (PD-1/PD-L1 interaction). Conditions: PD-L1 His 6 nM, PD-1 Fc 6 nM. Format: binding. Put shortly: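 Compounds tested from 20 μM down to 0.001 μM (3-fold) against 6 nM PD-L1 His and 6 nM PD-1 Fc, 15 min room temperature incubation. Detection after 1 h at room temperature with Tb cryptate anti-6HIS and XL665 anti-human IgG reagents (mixture at 0.35 nM and 6.7 nM), HTRF signal.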
With `COc1nc(-c2cccc(-c3cccc(-c4cnc5c(c4)CNCC(=O)N5)c3Cl)c2Cl)ccc1CNC[C@@H]1CCC(=O)N1` [Example 403, (S)-7-(2,2′-Dichloro-3′-(6-methoxy-5-((((5-oxopyrrolidin-2-yl)methyl)amino)methyl)pyridin-2-yl)-[1,1′-biphenyl]-3-yl)-1,3,4,5-tetrahydro-2H-pyrido[2,3-e][1,4]diazepin-2-one], 0.1 nM corresponded to half-maximal inhibition (IC50). Then `COc1nc(-c2cccc(-c3cccc(-c4ccn5c(Cl)c(CNC[C@@H]6CCC(=O)N6)nc5c4)c3Cl)c2Cl)ccc1CNC[C@@H]1CCC(=O)N1` [Example 382, (5S)-5-[[[6-[2-chloro-3-[2-chloro-3-[3-chloro-2-[[[(2S)-5-oxopyrrolidin-2-yl]methylamino]methyl]imidazo[1,2-a]pyridin-7-yl]phenyl]phenyl]-2-methoxy-3-pyridyl]methylamino]methyl]pyrrolidin-2-one], with 110 nM. Take `COc1nc(-c2cccc(-c3cccc(-c4ccc5nc(CN(C)CCO)cn5n4)c3Cl)c2Cl)ccc1CN(C)CCO` [Example 339, 2-[[6-[2-Chloro-3-[2-chloro-3-[2-[[2-hydroxyethyl(methyl)amino]methyl]imidazo[1,2-b]pyridazin-6-yl]phenyl]phenyl]-2-methoxy-3-pyridyl]methyl-methyl-amino]etanol]: the IC50 – broadly, the concentration needed to halve the response being measured – came out at 26 nM. This IC50 lies about 4.2-fold lower than the previous one. Then `COC(=O)[C@H]1CCN(Cc2cnc3cc(-c4cccc(-c5cccc(-c6ccc(CNC[C@@H]7CCC(=O)N7)c(OC)n6)c5Cl)c4Cl)ccn3c2=O)C1` [Example 192, (S)-Methyl 1-((8-(2,2′-dichloro-3′-(6-methoxy-5-(((((S)-5-oxopyrrolidin-2-yl)methyl)amino)methyl)pyridin-2-yl)-[1,1′-biphenyl]-3-yl)-4-oxo-4H-pyrido[1,2-a]pyrimidin-3-yl)methyl)pyrrolidine-3-carboxylate], with 0.8 nM; and `COc1nc(-c2cccc(-c3cccc(-c4ccn5c(=O)c(CNC[C@H]6C[C@H]6CO)cnc5c4)c3Cl)c2Cl)ccc1CNC[C@@H]1CCC(=O)N1` [Example 408, 8-(2,2′-Dichloro-3′-(6-methoxy-5-(((((S)-5-oxopyrrolidin-2-yl)methyl)amino)methyl)pyridin-2-yl)-[1,1′-biphenyl]-3-yl)-3-(((((1S,2R)-2-(hydroxymethyl)cyclopropyl)methyl)amino)methyl)-4H-pyrido[1,2-a]pyrimidin-4-one], with 1.1 nM. Then `COc1nc(-c2cccc(-c3cccc(-c4cc5c(=O)n(C)c(CNCC(=O)O)nn5c4)c3Cl)c2Cl)ccc1CNC[C@@H]1CCC(=O)N1` [Example 487, 2-[[6-[2-Chloro-3-[2-chloro-3-[6-methoxy-5-[[[(2S)-5-oxopyrrolidin-2-yl]methylamino]methyl]-2-pyridyl]phenyl]phenyl]-3-methyl-4-oxo-pyrrolo[2,1-f][1,2,4]triazin-2-yl]methylamino]acetic acid], with 0.1 nM; and `COc1nc(-c2cccc(-c3cccc(-c4ccn5c(=O)c(CN6CCC[C@H]6C(=O)O)cnc5c4)c3Cl)c2Cl)ccc1CNC[C@@H]1CCC(=O)N1` [Example 128, ((8-(2,2′-Dichloro-3′-(6-methoxy-5-(((((S)-5-oxopyrrolidin-2-yl)methyl)amino)methyl)pyridin-2-yl)-[1,1′-biphenyl]-3-yl)-4-oxo-4H-pyrido[1,2-a]pyrimidin-3-yl)methyl)-L-proline], with 0.2 nM; and `COc1nc(-c2cccc(-c3cccc(N4Cc5ccc(CNC[C@@H]6CCC(=O)N6)cc5C4=O)c3Cl)c2Cl)ccc1CNC[C@@H]1CCC(=O)N1` [Example 483, 2-(2,2′-Dichloro-3′-(6-methoxy-5-(((((S)-5-oxopyrrolidin-2-yl)methyl)amino)methyl)pyridin-2-yl)-[1,1′-biphenyl]-3-yl)-6-(((((S)-5-oxopyrrolidin-2-yl)methyl)amino)methyl)isoindolin-1-one], with 0.1 nM.

With `Cc1c(-c2ccn3c(=O)c(CNCCO)cnc3c2)cccc1-c1cccc(-c2ccn3c(=O)c(CNCCO)cnc3c2)c1C` [Example 15, 8,8′-(2,2′-Dimethyl-[1,1′-biphenyl]-3,3′-diyl)bis(3-(((2-hydroxyethyl)amino)methyl)-4H-pyrido[1,2-a]pyrimidin-4-one)], inhibition was half-maximal at 60 nM (IC50). Compound `COC(=O)C1CN(Cc2cnc3cc(-c4cccc(-c5cccc(-c6ccc(CN7CC(C(=O)OC)C7)c(OC)n6)c5Cl)c4Cl)ncc3c2)C1` [Example 289, Methyl 1-((6-(2,2′-dichloro-3′-(3-((3-(methoxycarbonyl)azetidin-1-yl)methyl)-1,6-naphthyridin-7-yl)-[1,1′-biphenyl]-3-yl)-2-methoxypyridin-3-yl)methyl)azetidine-3-carboxylate] came in with an IC50 of 9 nM. The compound `COc1nc(-c2cccc(-c3cccc(-c4ccc5c(CNC[C@@H]6CCO6)cn(C)c5n4)c3Cl)c2Cl)ccc1CNC[C@@H]1CCC(=O)N1` [Example 413, (5S)-5-[[[6-[2-Chloro-3-[2-chloro-3-[1-methyl-3-[[[(2S)-oxetan-2-yl]methylamino]methyl]pyrrolo[2,3-b]pyridin-6-yl]phenyl]phenyl]-2-methoxy-3-pyridyl]methylamino]methyl]pyrrolidin-2-one] registered a half-maximal inhibitory concentration (IC50) of 190 nM. Against the preceding compound, the IC50 is about 21-fold higher.

Turning to `COc1nc(-c2cccc(-c3cccc(-c4ccn5c(=O)c(CNC[C@@H]6CCO6)cnc5c4)c3Cl)c2Cl)ccc1CNC[C@@H]1CCC(=O)N1` [Example 306, 8-[2-Chloro-3-[2-chloro-3-[6-methoxy-5-[[[(2S)-5-oxopyrrolidin-2-yl]methylamino]methyl]-2-pyridyl]phenyl]phenyl]-3-[[[(2S)-oxetan-2-yl]methylamino]methyl]pyrido[1,2-a]pyrimidin-4-one], the IC50 amounted to 4.8 nM. Then `COc1nc(-c2cccc(-c3cccc(-c4cnc5c(c4)CCCC5NC[C@@H]4CCC(=O)N4)c3Cl)c2Cl)ccc1CNC[C@@H]1CCC(=O)N1` (stereo partly drawn) [Example 432, (5S)-5-(((3-(2,2′-Dichloro-3′-(6-methoxy-5-(((((S)-5-oxopyrrolidin-2-yl)-methyl)-amino)methyl)-pyridin-2-yl)-[1,1′-biphenyl]-3-yl)-5,6,7,8-tetrahydroquinolin-8-yl)amino)-methyl)-pyrrolidin-2-one], with 270 nM; and `COc1nc(-c2cccc(-c3cccc(-c4ccn5c(=O)c(CNC[C@H](C)O)c(C)nc5c4)c3Cl)c2Cl)ccc1CNC[C@@H]1CCC(=O)N1` [Example 193, 8-(2,2′-Dichloro-3′-(6-methoxy-5-(((((S)-5-oxopyrrolidin-2-yl)methyl)amino)methyl)pyridin-2-yl)-[1,1′-biphenyl]-3-yl)-3-((((S)-2-hydroxypropyl)amino)methyl)-2-methyl-4H-pyrido[1,2-a]pyrimidin-4-one], with 0.1 nM; and `COc1nc(-c2cccc(-c3cccc(-c4ccn5c(=O)c(CNC[C@@H]6CCC(=O)N6)cnc5c4)c3Cl)c2Cl)ccc1C1=NCC(O)CN1` (stereo partly drawn) [Example 178, 8-(2,2′-Dichloro-3′-(5-(5-hydroxy-1,4,5,6-tetrahydropyrimidin-2-yl)-6-methoxypyridin-2-yl)-[1,1′-biphenyl]-3-yl)-3-(((((S)-5-oxopyrrolidin-2-yl)methyl)amino)methyl)-4H-pyrido[1,2-a]pyrimidin-4-one], with 3.5 nM. Regarding `COc1nc(-c2cccc(-c3cccc(-c4cnc5c(CNC[C@@H]6CCC(=O)N6)c(C)nn5c4)c3Cl)c2Cl)ccc1CNC[C@@H]1CCC(=O)N1` [Example 420, (S)-5-((((6-(2,2′-Dichloro-3′-(2-methyl-3-(((((S)-5-oxopyrrolidin-2-yl)methyl)amino)methyl)pyrazolo[1,5-a]pyrimidin-6-yl)-[1,1′-biphenyl]-3-yl)-2-methoxypyridin-3-yl)methyl)amino)methyl)pyrrolidin-2-one], the 50% inhibitory concentration (IC50) amounted to 0.6 nM.

In turn, `COc1nc(-c2cccc(-c3cccc(-c4ccc5c(c4)cc4n5CCNC4)c3Cl)c2Cl)ccc1CNC[C@@H]1CCC(=O)N1` [Example 365, (S)-5-((((6-(2,2′-Dichloro-3′-(1,2,3,4-tetrahydropyrazino[1,2-a]indol-8-yl)-[1,1′-biphenyl]-3-yl)-2-methoxypyridin-3-yl)methyl)amino)methyl)919yrrolidine-2-one] registered a half-inhibitory concentration (IC50) of 13 nM. Then `CCOc1nc(-c2cccc(-c3cccc(-c4ccn5c(=O)c(CNC[C@@H]6CCC(=O)N6)cnc5c4)c3C)c2Cl)ccc1CNC[C@@H]1CCC(=O)N1` [Example 72, 8-(2′-Chloro-3′-(6-ethoxy-5-(((((S)-5-oxopyrrolidin-2-yl)methyl)amino)methyl)pyridin-2-yl)-2-methyl-[1,1′-biphenyl]-3-yl)-3-(((((S)-5-oxopyrrolidin-2-yl)methyl)amino)methyl)-4H-pyrido[1,2-a]pyrimidin-4-one], with 9.4 nM; and `COc1nc(-c2cccc(-c3cccc(-c4ccn5c(=O)c(CNCC[C@@H]6CCC(=O)N6)cnc5c4)c3Cl)c2Cl)ccc1CNC[C@@H]1CCC(=O)N1` [Example 214, 8-[2-chloro-3-[2-chloro-3-[6-methoxy-5-[[[(2S)-5-oxopyrrolidin-2-yl]methylamino]methyl]-2-pyridyl]phenyl]phenyl]-3-[[2-[(2S)-5-oxopyrrolidin-2-yl]ethylamino]methyl]pyrido[1,2-a]pyrimidin-4-one], with 0.5 nM; and `COc1nc(-c2cccc(-c3cccc(-c4cnc5c(CNC[C@@H]6CCC(=O)N6)cnn5c4)c3Cl)c2Cl)ccc1CNC[C@@H]1CCC(=O)N1` [Example 310, (S)-5-((((6-(2,2′-Dichloro-3′-(3-(((((S)-5-oxopyrrolidin-2-yl)methyl)amino)methyl)pyrazolo[1,5-a]pyrimidin-6-yl)-[1,1′-biphenyl]-3-yl)-2-methoxypyridin-3-yl)methyl)amino)methyl)pyrrolidin-2-one], with 0.2 nM. Compound `COc1nc(-c2cccc(-c3cccc(-c4ccn5c(=O)c(CN6CC(C(=O)O)C6)cnc5c4)c3Cl)c2Cl)ccc1CN1CC(CO)C1` [Example 84, 1-((8-(2,2′-Dichloro-3′-(5-((3-(hydroxymethyl)azetidin-1-yl)methyl)-6-methoxypyridin-2-yl)-[1,1′-biphenyl]-3-yl)-4-oxo-4H-pyrido[1,2-a]pyrimidin-3-yl)methyl)azetidine-3-carboxylic acid] returned an IC50 of 0.3 nM.
